Measured values published in US6521629B2, “Quinoline and quinazoline compounds useful in therapy” (Pfizer Inc., priority 1997, dated 2003).

Tested on: human prostate
Assay: Contractile responses of human prostate
Type: cell-based
Conditions: isolated human prostatic tissue strips; antagonism of (−)-noradrenaline contractions; single antagonist concentration incubated 2 hours
Protocol: Contractile Responses of Human Prostate
Prostatic tissue was cut into longitudinal strips (approximately 3×2×10 mm) and suspended in organ baths under a resting tension of 1 g in Krebs Ringer bicarbonate of the following composition (mM): NaCl (119), KCl (4.7), CaCl2 (2.5), KH2PO4 (1.2), MgSO4 (1.2), NaHCO3 (25), glucose (11), and gassed with 95% O2/5% CO2. The solution also contained 10 […]. Tissues were exposed to a sensitising dose of (−)-noradrenaline ([…]) and washed over a 45 minute period. Isometric contractions were obtained in response to cumulative additions of (−)-noradrenaline to obtain control curves in all tissues. A further curve was then generated in the presence or absence of antagonist (incubated for 2 hours). Antagonist affinity estimates (pA2) were determined using a single concentration of competing antagonist, pA2=−log [A]/(DR−1) where the dose ratio (DR), relative to corresponding controls, was produced by a single concentration of antagonist [A], assuming competitive antagonism and Schild regression close to unity.

Molecule `COc1cc2nc(N3CCCN(C(=O)N4CCOCC4)CC3)cc(N)c2c(-c2ncco2)c1OC` [Example 28, 4-Amino-6,7-dimethoxy-2-[4-(4-morpholinecarbonyl)-1,4-diazepan-1-yl]-5-(oxazol-2-yl)quinoline] has a pA2 value of 9.2.
